Where two headings read alike, the source gives them in different places. Some results are limits rather than exact numbers.

For orientation: EC50 means the concentration giving half of the maximal effect.

The target of this test is F508del-CFTR (Homo sapiens (Human), UniProt P13569, DEL508-508). The test is described as follows: Membrane potential optical (fluorescent voltage sensing dye, FLIPR III) HTS assay for F508del-CFTR modulators. The format is cell-based. The note with it: read-out: CFTRdF508 EC50. The source says: Membrane Potential Optical Methods for Assaying Properties of F508del-CFTR Modulators
F508del-CFTR, sequence (P13569 other isoform, or with tags, fused parts or gaps del F508-F508): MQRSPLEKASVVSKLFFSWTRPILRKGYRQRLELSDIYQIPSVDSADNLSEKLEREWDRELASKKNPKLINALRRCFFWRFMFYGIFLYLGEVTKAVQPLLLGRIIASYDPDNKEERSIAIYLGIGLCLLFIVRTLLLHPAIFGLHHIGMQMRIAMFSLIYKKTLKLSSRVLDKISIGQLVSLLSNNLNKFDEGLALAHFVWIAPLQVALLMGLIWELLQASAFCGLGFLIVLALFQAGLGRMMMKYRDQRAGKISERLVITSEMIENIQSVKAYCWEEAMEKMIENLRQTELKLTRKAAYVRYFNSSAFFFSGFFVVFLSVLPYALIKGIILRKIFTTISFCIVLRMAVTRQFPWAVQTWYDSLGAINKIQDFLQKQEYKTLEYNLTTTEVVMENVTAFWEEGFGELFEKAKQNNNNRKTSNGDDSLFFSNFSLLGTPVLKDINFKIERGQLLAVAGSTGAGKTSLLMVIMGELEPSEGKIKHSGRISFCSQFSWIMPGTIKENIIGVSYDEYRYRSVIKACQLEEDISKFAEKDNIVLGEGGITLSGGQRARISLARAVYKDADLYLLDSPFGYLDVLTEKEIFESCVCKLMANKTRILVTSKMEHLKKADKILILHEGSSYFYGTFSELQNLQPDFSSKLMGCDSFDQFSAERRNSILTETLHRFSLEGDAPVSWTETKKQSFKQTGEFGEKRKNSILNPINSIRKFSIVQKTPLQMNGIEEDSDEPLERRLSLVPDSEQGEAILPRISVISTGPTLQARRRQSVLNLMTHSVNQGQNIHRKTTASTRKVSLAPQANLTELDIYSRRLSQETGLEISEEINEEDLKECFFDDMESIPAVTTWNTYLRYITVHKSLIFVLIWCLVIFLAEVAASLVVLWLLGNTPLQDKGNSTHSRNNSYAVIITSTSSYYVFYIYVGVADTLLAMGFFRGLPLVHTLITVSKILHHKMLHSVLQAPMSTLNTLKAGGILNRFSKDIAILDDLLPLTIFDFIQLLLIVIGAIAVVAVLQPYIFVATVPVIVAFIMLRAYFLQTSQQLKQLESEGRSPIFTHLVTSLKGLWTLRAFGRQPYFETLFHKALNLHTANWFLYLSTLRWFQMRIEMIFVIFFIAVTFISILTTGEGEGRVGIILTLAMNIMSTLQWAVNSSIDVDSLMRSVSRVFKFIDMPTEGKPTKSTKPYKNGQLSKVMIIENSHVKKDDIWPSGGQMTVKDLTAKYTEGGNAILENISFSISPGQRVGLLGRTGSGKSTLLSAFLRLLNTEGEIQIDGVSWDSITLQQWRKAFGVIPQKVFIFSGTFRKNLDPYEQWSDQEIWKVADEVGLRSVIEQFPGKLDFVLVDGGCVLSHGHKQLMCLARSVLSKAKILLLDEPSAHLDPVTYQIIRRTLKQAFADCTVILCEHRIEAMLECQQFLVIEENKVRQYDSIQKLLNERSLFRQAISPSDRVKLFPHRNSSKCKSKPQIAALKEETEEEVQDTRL
The assay utilizes fluorescent voltage sensing dyes to measure changes in membrane potential using a fluorescent plate reader (e.g., FLIPR III, Molecular Devices, Inc.) as a readout for increase in functional F508del in NIH 3T3 cells.
5A-A1. Identification of F508Del-CFTR Modulators
To identify modulators of F508del, a fluorescence based HTS assay format was developed. This HTS assay utilizes fluorescent voltage sensing dyes to measure changes in membrane potential on the FLIPR III as a measurement for increase in gating (conductance) of F508del NIH 3T3 cells.
(in mM) NaCl 160, KCl 4.5, CaCl2 2, MgCl2 1, HEPES 10, pH 7.4 with NaOH, Glucose 10.
Chloride salts in Bath Solution #1 (above) are substituted with gluconate salts.
NIH3T3 mouse fibroblasts stably expressing F508del are used for optical measurements of membrane potential. The cells are maintained at 37° C. in 5% CO2 and 90% humidity in Dulbecco's modified Eagle's medium supplemented with 2 mM glutamine, 10% fetal bovine serum, 1×NEAA, β-ME, 1×pen/strep, and 25 mM HEPES in 175 cm^2 culture flasks. For all optical assays, the cells were seeded at 12,000 cells/well in 384-well matrigel-coated plates and cultured for 18-24 hrs at 37° C. for the potentiator assay. For the correction assays, the cells are cultured at 37° C. with and without compounds for 18-24 hours.

The mark [1] stands for this setting: F508del NIH 3T3 cells, assay 5A-A1.

Turning to `C[C@@H]1CN(c2nc(-n3ccc(OCC4(C(F)(F)F)CC4)n3)ccc2C(=O)NS(=O)(=O)c2cccc(O)c2)C(C)(C)C1` [Compound 21, N-(3-Hydroxyphenyl)sulfonyl-6-[3-[[1-(trifluoromethyl)cyclopropyl]methoxy]pyrazol-1-yl]-2-[(4S)-2,2,4-trimethylpyrrolidin-1-yl]pyridine-3-carboxamide], under setting [1], the EC50 was less than 100 nM.

In the case of `C[C@@H]1CN(c2nc(-n3ccc(O[C@@H]4C[C@H]4C(F)(F)F)n3)ccc2C(=O)NS(=O)(=O)c2ccccc2)C(C)(C)C1` (racemic) [Compound 19, N-(Benzenesulfonyl)-6-[3-[(trans)-2-(trifluoromethyl)cyclopropoxy]pyrazol-1-yl]-2-[(4S)-2,2,4-trimethylpyrrolidin-1-yl]pyridine-3-carboxamide], the EC50 under setting [1] was 100 to 1000 nM.

In the case of `C[C@@H]1CN(c2nc(-n3ccc(OCCC4(C(F)(F)F)CC4)n3)ccc2C(=O)NS(=O)(=O)c2cccc(O)c2)C(C)(C)C1` [Compound 35, N-(3-Hydroxyphenyl)sulfonyl-6-[3-[2-[1-(trifluoromethyl)cyclopropyl]ethoxy]pyrazol-1-yl]-2-[(4S)-2,2,4-trimethylpyrrolidin-1-yl]pyridine-3-carboxamide], the EC50 under setting [1] is less than 100 nM.

Regarding `C[C@@H]1CN(c2nc(-n3ccc(OCC(O)C4(C(F)(F)F)CC4)n3)ccc2C(=O)NS(=O)(=O)c2ccccc2)C(C)(C)C1` (stereo partly drawn) [Compound 38, N-(Benzenesulfonyl)-6-[3-[2-hydroxy-2-[1-(trifluoromethyl)cyclopropyl]ethoxy]pyrazol-1-yl]-2-[(4S)-2,2,4-trimethylpyrrolidin-1-yl]pyridine-3-carboxamide], the EC50 under setting [1] lay within 100 to 1000 nM; the EC50 (Table 7, Compound 1 and metabolites) stood at 240 nM.

With `C[C@@H]1CN(c2nc(-n3ccc(OCC4CC45CC5)n3)ccc2C(=O)NS(=O)(=O)c2ccccc2)C(C)(C)C1` (stereo partly drawn) [Compound 60, N-(Benzenesulfonyl)-6-[3-(spiro[2.2]pentan-2-ylmethoxy)pyrazol-1-yl]-2-[(4S)-2,2,4-trimethylpyrrolidin-1-yl]pyridine-3-carboxamide], under setting [1], the EC50 was in the range of 100 to 1000 nM.

As for `C[C@@H]1CN(c2nc(-n3ccc(OCC4(C(F)(F)F)CC4)n3)ccc2C(=O)NS(=N)(=O)c2ccccc2)C(C)(C)C1` (stereo partly drawn) [Compound 45, N-(amino(oxo)(phenyl)-λ^6-sulfaneylidene)-6-(3-((1-(trifluoromethyl)cyclopropyl)methoxy)-1H-pyrazol-1-yl)-2-((S)-2,2,4-trimethylpyrrolidin-1-yl)nicotinamide], the EC50 under setting [1] was 100 to 1000 nM.

For the molecule `COc1ccc(S(=O)(=O)NC(=O)c2ccc(-n3ccc(OCC4(C(F)(F)F)CC4)n3)nc2N2C[C@@H](C)CC2(C)C)cc1` [Compound 54, N-(4-methoxyphenyl)sulfonyl-6-[3-[[l-(trifluoromethyl)cyclopropyl]methoxy]pyrazol-1-yl]-2-[(4S)-2,2,4-trimethylpyrrolidin-1-yl]pyridine-3-carboxamide], the EC50 under setting [1] is less than 100 nM.

As for `C[C@@H]1CN(c2nc(-n3ccc(OCC4(C(F)(F)F)CC4)n3)ccc2C(=O)NS(=O)(=O)c2cccc(C#N)c2)C(C)(C)C1` [Compound 25, N-(3-Cyanophenyl)sulfonyl-6-[3-[[1-(trifluoromethyl)cyclopropyl]methoxy]pyrazol-1-yl]-2-[(4S)-2,2,4-trimethylpyrrolidin-1-yl]pyridine-3-carboxamide], the EC50 under setting [1] is less than 100 nM.

Regarding `[2H]C([2H])(Oc1ccn(-c2ccc(C(=O)NS(=O)(=O)c3ccccc3)c(N3C[C@@H](C)CC3(C)C)n2)n1)C1C(C)(C)C1(C)C` [Compound 36, N-(Benzenesulfonyl)-6-[3-[dideuterio-(2,2,3,3-tetramethylcyclopropyl)methoxy]pyrazol-1-yl]-2-[(4S)-2,2,4-trimethylpyrrolidin-1-yl]pyridine-3-carboxamide], the concentration for a half-maximal effect (EC50) under setting [1] is less than 100 nM.

Turning to `C[C@H]1CN(c2nc(-n3ccc(OCCC4(C(F)(F)F)CC4)n3)ccc2C(=O)NS(=O)(=O)c2ccccc2)C(C)(C)C1` [Compound 2, (R)—N-(Phenylsulfonyl)-6-(3-(2-(1-(trifluoromethyl)cyclopropyl)ethoxy)-1H-pyrazol-1-yl)-2-(2,2,4-trimethylpyrrolidin-1-yl)nicotinamide], the EC50 under setting [1] lay in the range of 100 to 1000 nM.

On to `C[C@@H]1CN(c2nc(-n3ccc(OCC4(C(F)(F)F)CC4)n3)ccc2C(=O)NS(=O)(=O)c2ccccc2O)C(C)(C)C1` [Compound 20, N-(2-Hydroxyphenyl)sulfonyl-6-[3-[[1-(trifluoromethyl)cyclopropyl]methoxy]pyrazol-1-yl]-2-[(4S)-2,2,4-trimethylpyrrolidin-1-yl]pyridine-3-carboxamide], for which, under setting [1], the EC50 was 100 to 1000 nM.

Regarding `C[C@@H]1CN(c2nc(-n3ccc(O)n3)ccc2C(=O)NS(=O)(=O)c2ccccc2)C(C)(C)C1` [Compound 65, N-(benzenesulfonyl)-6-(3-hydroxypyrazol-1-yl)-2-[(4S)-2,2,4-trimethylpyrrolidin-1-yl]pyridine-3-carboxamide], the concentration for a half-maximal effect (EC50) under setting [1] was greater than 1000 nM.

Consider `C[C@@H]1CN(c2nc(-n3ccc(OCC4(C(F)(F)F)CC4)n3)ccc2C(=O)NS(=O)(=O)c2ccccc2C#N)C(C)(C)C1` [Compound 26, N-(2-Cyanophenyl)sulfonyl-6-[3-[[1-(trifluoromethyl)cyclopropyl]methoxy]pyrazol-1-yl]-2-[(4S)-2,2,4-trimethylpyrrolidin-1-yl]pyridine-3-carboxamide], for which, under setting [1], the half-maximal effective concentration (EC50) was greater than 1000 nM.

Turning to `COc1cc(S(=O)(=O)NC(=O)c2ccc(-n3ccc(OCCC4(C(F)(F)F)CC4)n3)nc2N2C[C@@H](C)CC2(C)C)ccc1O` [Compound 3, (S)—N-((4-Hydroxy-3-methoxyphenyl)sulfonyl)-6-(3-(2-(1-(trifluoromethyl)cyclopropyl)ethoxy)-1H-pyrazol-1-yl)-2-(2,2,4-trimethylpyrrolidin-1-yl)nicotinamide], the EC50 under setting [1] was less than 100 nM.

Regarding `Cc1ccccc1S(=O)(=O)NC(=O)c1ccc(-n2ccc(OCC3C4(CC4)C34CC4)n2)nc1N1C[C@@H](C)CC1(C)C` [Compound 8, 6-[3-(Dispiro[2.0.2^4.1^3]heptan-7-ylmethoxy)pyrazol-1-yl]-N-(o-tolylsulfonyl)-2-[(4S)-2,2,4-trimethylpyrrolidin-1-yl]pyridine-3-carboxamide], the EC50 under setting [1] was less than 100 nM.

Take `C[C@@H]1CN(c2nc(-n3ccc(OC4CC4)n3)ccc2C(=O)NS(=O)(=O)c2ccccc2)C(C)(C)C1` [Compound 48, N-(Benzenesulfonyl)-6-[3-(cyclopropoxy)pyrazol-1-yl]-2-[(4S)-2,2,4-trimethylpyrrolidin-1-yl]pyridine-3-carboxamide]: the EC50 under setting [1] was greater than 1000 nM.

For the molecule `CC1(C)CN(c2nc(-n3ccc(OCC4(C(F)(F)F)CC4)n3)ccc2C(=O)NS(=O)(=O)c2ccccc2)C(C)(C)C1` [Compound 56, N-(Benzenesulfonyl)-2-(2,2,4,4-tetramethylpyrrolidin-1-yl)-6-[3-[[1-(trifluoromethyl)cyclopropyl]methoxy]pyrazol-1-yl]pyridine-3-carboxamide], under setting [1], the half-maximal effective concentration (EC50) was in the range of 100 to 1000 nM.

As to `C[C@@H]1CN(c2nc(-n3ccc(OCC45CC(F)(C4)C5)n3)ccc2C(=O)NS(=O)(=O)c2ccccc2)C(C)(C)C1` [Compound 63, N-(Benzenesulfonyl)-6-[3-[(3-fluoro-1-bicyclo[1.1.1]pentanyl)methoxy]pyrazol-1-yl]-2-[(4S)-2,2,4-trimethylpyrrolidin-1-yl]pyridine-3-carboxamide], the EC50 under setting [1] was 100 to 1000 nM.

Source of the values: patent US11186566B2, “Modulator of cystic fibrosis transmembrane conductance regulator, pharmaceutical compositions, methods of treatment, and process for making the modulator” (Vertex Pharmaceuticals Incorporated, priority 2016, dated 2021).
